This experiment concerns the target T1, MT1-MMP hemopexin domain (Homo sapiens, UniProt P50281).
T1 construct: residues Cys319-Gly511 from the human gene; His6 (N); made in house; host or cells: HEK293 (transient), pEXPR-IBA42 vector
Briefly: Competition assay using fluorescence polarisation. The format is binding. The note with it: for Kd: read-out: Kd. From the text:
Here, a pre-formed complex of PEX with the fluorescent PEX-binding tracer is titrated with free, non-fluoresceinated bicyclic peptide. Since all 17-69-based peptides are expected to bind at the same site, the titrant will displace the fluorescent tracer from PEX. Dissociation of the complex can be measured quantitatively, and the Kd of the competitor (titrant) to the target protein determined. The advantage of the competition method is that the affinities of non-fluoresceinated bicyclic peptides can be determined accurately and rapidly.
Subsequently, the non-fluorescent competitor bicyclic peptide (usually just the bicycle core sequence) is titrated, such that it displaces the fluorescent tracer from the target protein. The displacement of the tracer is measured and associated with a drop in fluorescence polarisation. The drop in fluorescence polarisation is proportional to the fraction of target protein bound with the non-fluorescent titrant, and thus is a measure of the affinity of titrant to target protein.
The raw data is fit to the analytical solution of the cubic equation that describes the equilibria between fluorescent tracer, titrant, and binding protein. The fit requires the value of the affinity of fluorescent tracer to the target protein, which can be determined separately by direct binding FP experiments (see previous section).

The mark [1] stands for this setting: Table 8, substitutions at position 4.

Usually Kd stands for the concentration at which binding is half-saturated.

Each structure is given as a SMILES string. Like-named read-outs stand apart in the source and are kept apart here. Numbered stars: 1 amine (or outer) side, 2 acyl side, 3 side chain; on linkers, the order of the positions; unused ones are H or OH. Bridge positions count the residues as written; N and C are the ends. Square brackets hold non-standard residues; d marks the D form. Peptide text beside a SMILES is read from it. Phe(F5) = N[C@@H](Cc1c(F)c(F)c(F)c(F)c1F)C(=O)O; 1Nal = N[C@@H](Cc1cccc2ccccc12)C(=O)O; TBMB = c1c(C[*:1])cc(C[*:3])cc1C[*:2]

Regarding `CC[C@@H](C)[C@H]1NC(=O)[C@@H](CC(=O)O)NC(=O)[C@@H](Cc2ccc(O)cc2)NC(=O)[C@@H](Cc2ccccc2)NC(=O)[C@@H](CC(=O)O)NC(=O)[C@@H](CCC(=O)O)NC(=O)[C@H]2CSCc3cc(cc(c3)CSC[C@@H](NC(=O)[C@@H](C)NC(=O)CN3CCN(CC(=O)O)CCN(CC(=O)O)CCN(CC(=O)O)CC3)C(=O)N[C@H](Cc3ccc(O)cc3)C(=O)N[C@H](CC(N)=O)C(=O)N[C@H](CCC(=O)O)C(=O)N[C@H](Cc3ccccc3)C(=O)NCC(=O)N2)CSC[C@H](C(N)=O)NC1=O` [17-69-07-N246, DOTA-A-(17-69-07) All D Amino Acids], the “potency / activity toward MT1-MMP, in words” value is reported as “lacks any activity toward MT1-MMP”. Moreover, where the note is “Table 15, DOTA-linked peptides”, the Kd was more than 5000 nM.
`CC[C@H](C)[C@@H]1NC(=O)[C@H](CC(=O)O)NC(=O)[C@H](Cc2ccc(O)cc2)NC(=O)[C@H](Cc2ccccc2)NC(=O)[C@H](CC(=O)O)NC(=O)[C@H](CCC(=O)O)NC(=O)[C@@H]2CSCc3cc(cc(c3)CSC[C@@H](C(=O)N[C@@H](C)C(N)=O)NC1=O)CSC[C@H](NC(=O)[C@H](C)N)C(=O)N[C@@H](Cc1ccc(O)cc1)C(=O)N[C@@H](CC(N)=O)C(=O)N[C@@H](CCC(=O)O)C(=O)N[C@@H](Cc1ccccc1)C(=O)NCC(=O)N2` [17-69-07-N001, A-(17-69-07)-A]: for the setting “Table 3, Competition, tracer A-(17-69-12)-A-Sar6-K(Fluorescein)”, the Kd is 1.65 ± 0.29 nM.
As to `CC[C@H](C)[C@@H]1NC(=O)[C@H](CC(=O)O)NC(=O)[C@H](Cc2ccc(O)cc2)NC(=O)[C@H](Cc2ccccc2)NC(=O)[C@H](CC(=O)O)NC(=O)[C@H](CCC(=O)O)NC(=O)[C@@H]2CSCc3cc(cc(c3)CSC[C@H](NC(C)=O)C(=O)N[C@@H](Cc3ccc(O)cc3)C(=O)N[C@@H](CC(N)=O)C(=O)N[C@@H](CCC(=O)O)C(=O)N[C@@H](CCc3ccccc3)C(=O)NCC(=O)N2)CSC[C@@H](C(N)=O)NC1=O` [17-69-07-N140, Ac-(17-69-07) HPhe4], the Kd under setting [1] came out at 43.3 nM.
In the case of `CC[C@H](C)[C@@H]1NC(=O)[C@H](CC(=O)O)NC(=O)[C@H](Cc2c(F)c(F)c(F)c(F)c2F)NC(=O)[C@H](Cc2ccccc2)NC(=O)[C@H](CC(=O)O)NC(=O)[C@H](CCC(=O)O)NC(=O)[C@@H]2CSCc3cc(cc(c3)CSC[C@H](NC(C)=O)C(=O)N[C@@H](Cc3ccc(O)cc3)C(=O)N[C@@H](CC(N)=O)C(=O)N[C@@H](CCC(=O)O)C(=O)N[C@@H](Cc3ccccc3)C(=O)NCC(=O)N2)CSC[C@@H](C(N)=O)NC1=O` [17-69-07-N182, Ac-(17-69-07) 5FPhe9] (Ac-CYNEFGCEDF[Phe(F5)]DIC-NH2; linker 1-7-14 via TBMB), the Kd (Table 9, tolerated substitutions at positions 9 and 11) came out at 13.1 nM.
As for `CC[C@H](C)[C@@H]1NC(=O)[C@H](CC(=O)O)NC(=O)[C@H](Cc2ccc(O)cc2)NC(=O)[C@H](Cc2ccccc2)NC(=O)[C@H](CC(=O)O)NC(=O)[C@H](CCC(=O)O)NC(=O)[C@@H]2CSCc3cc(cc(c3)CSC[C@@H](C(=O)N[C@@H](C)C(N)=O)NC1=O)CSC[C@H](NC(=O)[C@H](C)N)C(=O)N[C@@H](Cc1ccccc1)C(=O)NCC(=O)N[C@@H](CCC(=O)O)C(=O)N[C@@H](Cc1ccccc1)C(=O)NCC(=O)N2` [17-69-02-N001, A-(17-69-02)-A] (H-ACFGEFGCEDFYDICA-NH2; linker 2-8-15 via TBMB), for the setting “Table 2, FP method Competition, tracer A-(17-69-07)-A-Sar6-K(Fluorescein)”, the Kd was 191 nM.
As to `CC[C@H](C)[C@@H]1NC(=O)[C@H](CC(=O)O)NC(=O)[C@H](Cc2ccc(O)cc2)NC(=O)[C@H](Cc2ccccc2)NC(=O)[C@H](CC(=O)O)NC(=O)[C@H](CCC(=O)O)NC(=O)[C@@H]2CSCc3cc(cc(c3)CSC[C@H](NC(C)=O)C(=O)N[C@@H](Cc3ccc(O)cc3)C(=O)N[C@@H](CC(N)=O)C(=O)N[C@@H](CCC(=O)O)C(=O)N[C@@H](Cc3cccc4ccccc34)C(=O)NCC(=O)N2)CSC[C@@H](C(N)=O)NC1=O` [17-69-07-N067, Ac-(17-69-07) 1NAl4] (Ac-CYNE[1Nal]GCEDFYDIC-NH2; linker 1-7-14 via TBMB), the dissociation constant (Kd) under setting [1] worked out at 0.36 ± 0.12 nM.
